From article PMC7409196, “Investigating the Effect of Esterification on Retinal Pigment Epithelial Uptake Using Rhodamine B Derivatives” (Translational Vision Science & Technology, 2020)

Legend:
[1] = Stability of dyes in media (HPLC); type: in vitro ADME; details: 100 nM in MEM-Nic + 1% FBS, 37°C, HPLC at 0 and 2 hours
Method: Fresh 100 nM RBBE solutions were prepared in MEM-Nic + 1% FBS with 0.2% Tween20. HPLC chromatograms were recorded immediately after making solutions and after incubation at 37°C for 2 hours to determine stability of the ester linkage in media.

ARPE-19-nic cells [2] = experiment: De-esterification in cells (HPLC of cell extracts); type: in vitro ADME, human; details: confluent cells treated with 100 nM for 30 minutes and 2 hours
Method: For cell work, confluent ARPE-19-nic cells were treated with 100 nM dye solutions for 30 minutes and 2 hours at 37°C, 5% CO2 in a 12-well plate. After washing the cells with PBS three times, cells were extracted using cell scrappers with the aid of methanol. The cell suspension in methanol was sonicated in a water bath for 5 minutes and was centrifuged at 16,000 g for 15 minutes. The supernatant was transferred to an HPLC vial and methanol was evaporated under a stream of nitrogen. The sample was resuspended in 40 µL of methanol before injecting into the HPLC system. Twenty microliters of the samples were injected with an autosampler. Separation was conducted by 1.1 mL/min isocratic elution with a methanol (80%) and 10 mM sodium phosphate buffer (pH 5.8, 20%) mobile phase on a 250 × 4.6-mm (5 µm) C18 column (Pinnacle II; Restek, Bellefonte, PA) maintained at 40°C. The samples were monitored at an emission wavelength of 580 nm (λex = 550 nm) using a FLD detector and analyzed with Agilent Chemstation software.

ARPE-19-nic cells [3] = experiment: Co-localization with Mito-GFP (confocal and high-resolution live cell imaging); type: cell-based, human; details: 25 nM, 30 minutes; for cell penetration and association with mitochondria, high-resolution airy scan imaging: live cells
Method: ARPE-19-nic cells were seeded at 1.5 × 10^5 cells per well density in 8-well Millicell EZ slides with MEM-Nic + 1% FBS. After 24 hours (60%–70% confluency), cells were transfected with CellLight Mitochondria-GFP using manufacturer's recommended protocol. For co-localization experiments carried out at subconfluent conditions, media containing CellLight Mito-GFP were removed, washed with DPBS and cells were treated with 25 nM dye solutions prepared in MEM-Nic + 1% FBS at 37°C, 5% CO2. After 30 minutes, media containing dye solution was removed and cells were washed three times with DPBS. Cells were mounted with DPBS for confocal laser scanning microscope imaging. An 63× oil lens was used to image cells in green and red channels. For experiments carried out at confluent conditions, transfection was carried out at 60% to 70% confluency and cells were grown to 100% confluency. A 20× lens was used to generate images to compare staining efficiencies.
To analyze RBBE and its association with mitochondria, high-resolution live cell imaging was conducted using a Zeiss LSM880 inverted confocal microscope equipped with a GaAsP detector. All the images were obtained by using a 63× oil objective (30°C oil) in three channels (blue, green, and red) at room temperature. ARPE-19-nic cells were grown in Lab-Tek II chambered no 1.5 German coverslip system for 24 hours before treating with CellLight Mito-GFP overnight followed by a 30-minute treatment of 25 nM RBBE in growth media. After treating the cells with RBBE, cells were washed twice with PBS and nuclei were stained employing a Hoechst stain (1/2000 diluted from a 10 mg/mL stock solution in media) for 10 minutes at room temperature. Subsequently cells were washed twice with PBS and cells were imaged in phenol red free CO2 independent Leibovitz's (1×) media.

[4] = test system: isolated mitochondria from ARPE-19-nic cells; experiment: Quantification of dye amounts in isolated mitochondria; type: cell-based, human; details: 100 nM, 30 minutes; t-test P < 0.0001
ARPE-19-nic cells [5] = experiment: Cellular uptake: intracellular and extracellular fluorescence quantification; type: cell-based, human
Method: Black clear bottomed Costar 96-well plates were pretreated with 0.039 mg/mL collagen I solution prepared in sterilized deionized water (50 µL per well) for 1 hour, aspirated and washed with 100 µL of DPBS. Confluent ARPE-19-nic cells were harvested and seeded at approximately 70,000 cells per well and grown until the cells reached 100% confluency. At the time of confluence (day 0), media were removed from the cells and treated with 100 µL of freshly made dye solutions in MEM-Nic + 1% FBS in amber Eppendorf tubes in dark. […] To determine intracellular and extracellular dye levels, cells were treated with 25 nM dye solutions for 2 hours. Extracellular levels were measured by transferring 75 µL of the media sitting on top of the cells to a new black, clear bottomed 96-well plate. To the transferred media, 25 µL of Qiagen RLT lysis buffer with 0.2% Tween20 were added and fluorescence was measured as mentioned elsewhere in this article. Intracellular amounts were determined by adding 100 µL of Qiagen RLT lysis buffer with 0.2% Tween20 to the cells that were washed thrice with DPBS. Fluorescence measurements were carried as described. For accumulation experiments, freshly prepared 25 nM dye solutions were added to cells multiple times (1×, 2×, or 3×) and incubated for 2 hours after each addition, removing media before each addition. After the incubation period, cells were washed three times with DPBS and fluorescence was measured from a plate reader. For retention experiments, cells were treated with 25 nM dye solutions for 2 hours at 37°C, 5% CO2, and fresh media was added every 24 hours after the removal of the dye solution.

ARPE-19-nic cells [6] = experiment: Accumulation experiment with repeated dye additions; type: cell-based, human; details: 25 nM added 1×, 2× or 3×, 2 hours each
Method: Black clear bottomed Costar 96-well plates were pretreated with 0.039 mg/mL collagen I solution prepared in sterilized deionized water (50 µL per well) for 1 hour, aspirated and washed with 100 µL of DPBS. Confluent ARPE-19-nic cells were harvested and seeded at approximately 70,000 cells per well and grown until the cells reached 100% confluency. At the time of confluence (day 0), media were removed from the cells and treated with 100 µL of freshly made dye solutions in MEM-Nic + 1% FBS in amber Eppendorf tubes in dark. After the appropriate incubation time, cells were washed thrice with DPBS, lysed with Qiagen RLT buffer with 0.2% Tween20, and fluorescence was recorded at λex/ λem = 552 nm/558 nm. […] Extracellular levels were measured by transferring 75 µL of the media sitting on top of the cells to a new black, clear bottomed 96-well plate. To the transferred media, 25 µL of Qiagen RLT lysis buffer with 0.2% Tween20 were added and fluorescence was measured as mentioned elsewhere in this article. Intracellular amounts were determined by adding 100 µL of Qiagen RLT lysis buffer with 0.2% Tween20 to the cells that were washed thrice with DPBS. Fluorescence measurements were carried as described. […] After the incubation period, cells were washed three times with DPBS and fluorescence was measured from a plate reader. […]

Row | Molecule | stability of the ester in media [1] | conversion into the parent form (de-esterification) inside cells (ARPE-19-nic cells [2]) | cell penetration and association with mitochondria, high-resolution airy scan imaging (ARPE-19-nic cells [3]) | fluorescence from isolated mitochondria compared with RB-treated cells [4] | cell permeability (ARPE-19-nic cells [5]; 25 nM) | intracellular versus extracellular location of dye (ARPE-19-nic cells [5]; 25 nM, 2 hours, fluorescence) | cell penetration after 24 hours incubation (ARPE-19-nic cells [5]; 24 hours incubation) | intracellular level after multiple doses (accumulation) (ARPE-19-nic cells [6]) | co-localization with Mito-GFP labelled mitochondria (ARPE-19-nic cells [3]; confocal laser scanning microscopy)
1 | CCCCOC(=O)c1ccccc1-c1c2ccc(=[N+](CC)CC)cc-2oc2cc(N(CC)CC)ccc12 [RBBE, Rhodamine B Butyl Ester] | stable in media up to 2 hours | did not convert into its parent form within 2 hours | able to effectively penetrate into the cells and associated with mitochondria | increased fluorescence activity | – | – | – | – | –
2 | rhodamine B [RB] | – | – | did not observe any RB | – | cell impermeable | primarily located in the extracellular space | not able to penetrate into the cells | showed no accumulation | not detected within the cells
